Measurements from patent US20050267133A1, “Pyrazolopyrimidines as kinase inhibitors” (priority 2002, published 2005).

Legend:
GSK-3β = GSK-3β (Homo sapiens, UniProt P49841); experiment: GSK3 scintillation proximity assay (SPA) kinase assay; format: biochemical; conditions: 20 nM kinase, 2.5 uM ATP, biotinylated glycogen synthase peptide, 40 minutes at room temperature; -log IC50 in Molar; read-out: GSK-3 pIC50 (converted)
Text: The phosphorylated biotinylated peptide is then captured onto streptavidin coated scintillation proximity assay (SPA) beads from Amersham Technology, where the signal from the ^33P is amplified via the scintillant contained in the beads.
GSK-3β is commercially available or may be cloned and expressed in E. coli using standard techniques to produce soluble, active protein. The production of active protein involves purification in two steps using Metal Chelate and Ion Exchange Chromatography. Protein eluting from Ion Exchange provides >90% pure product that may then be concentrated for use in high throughput screening.
The kinase was assayed at a concentration of 20 nM final in 100 mM HEPES, pH 7.2 containing 10 mM magnesium chloride, 0.1 mg/mL bovine serum albumin, 1 mM dithiothreitol, 0.3 mg/mL heparin, 2.8 uM peptide substrate, 2.5 uM ATP, and 0.2 uCi/well [[…]-^33P]-ATP. After 40 minutes incubation at room temperature, the reaction was stopped by addition of 100 mM EDTA and […] in 100 mM HEPES, pH7.2 followed by an additional solution of diluted Streptavidin coated SPA beads in PBS, pH 7.2 to give a final concentration of 0.25 mg of beads per assay well in a 96-well microtiter plate.
10 mM stock solutions of the compounds of the invention in 100% DMSO are generated as a first step in the screening process. The second step involves the creation of dose response plates where these compounds are diluted 10-fold in 100% DMSO to 1 mM concentrations and subsequently serially diluted 3-fold in 100% DMSO across the plate by automated liquid handling such that the final top concentration of inhibitor is 0.033 mM in the 30 uL kinase assay. The third step involves the creation of the assay plates. This is achieved by transferring 1 uL of the compounds to assay plates by automated liquid handling. The fourth step is to perform the assay as described and count the resulting plates in the Packard TopCount NXT microplate scintillation and luminescence counter.
The final step is data acquisition and analysis where IC50 values are generated for each compound by normalizing curve data to the equation 100*(U1−C2)/(C1−C2) (where U1 is the cpm value, C2 is the background, and C1 is the maximum number of counts), then fitting the normalized data to the equation y=Vmax*(1−(x/(K+x))). The IC50 values were converted to pIC50 values, i.e., −log IC50 in Molar concentration. The data is expressed below in Table 1.

[1] = biological target: T1, GST-TIE2 (intracellular domains of human TIE2) (Homo sapiens, UniProt Q02763); experiment: TIE-2 Enzyme Assay (TIE2-E), LANCE method; format: biochemical; conditions: preactivated GST-TIE2, 1 μM D1-15 peptide, 80 uM ATP, 30 mins at room temperature; pIC50 = -log IC50 in Molar
T1 construct: made in house
T1 sequence (Q02763 762-1104): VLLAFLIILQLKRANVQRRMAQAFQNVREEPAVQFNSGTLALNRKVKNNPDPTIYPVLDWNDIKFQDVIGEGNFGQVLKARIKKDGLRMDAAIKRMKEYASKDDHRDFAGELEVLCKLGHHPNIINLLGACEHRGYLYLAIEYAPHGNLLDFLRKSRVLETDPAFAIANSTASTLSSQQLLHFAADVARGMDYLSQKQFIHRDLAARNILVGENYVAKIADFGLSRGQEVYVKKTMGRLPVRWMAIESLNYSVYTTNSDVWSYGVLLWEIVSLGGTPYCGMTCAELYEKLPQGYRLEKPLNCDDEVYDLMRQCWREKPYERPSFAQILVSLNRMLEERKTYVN
Text: The TIE-2 enzyme assay used the LANCE method (Wallac) and GST-TIE2, baculovirus expressed recombinant constructs of the intracellular domains of human TIE2 (amino acids 762-1104, GenBank Accession # L06139) tagged by GST). The method measured the ability of the purified enzymes to catalyse the transfer of the γ-phosphate from ATP onto tyrosine residues in a biotinylated synthetic peptide, D1-15 (biotin-C6-LEARLVAYEGWVAGKKKamide). This peptide phosphorylation was detected using the following procedure: for enzyme preactivation, GST-TIE2 was incubated for 30 mins at room temperature with 2 mM ATP, 5 mM MgCl2 and 12.5 mM DTT in 22.5 mM HEPES buffer (pH7.4). Preactivated GST-TIE2 was incubated for 30 mins at room temperature in 96 well plates with 1 μM D1-15 peptide, 80 uM ATP, 10 mM MgCl2, 0.1 mg/ml BSA and the test compound (diluted from a 10 mM stock in DMSO, final DMSO concentration was 2.4%) in 1 mM HEPES (pH7.4). The reaction was stopped by the addition of EDTA (final concentration 45 mM). Streptavidin linked-APC (allophycocyanin, Molecular Probe) and Europium-labeled anti-phosphorylated tyrosine antibody (Wallac) were then added at the final concentration of 17 μg/well and 2.1 μg/well, respectively. The APC signal was measured using an ARVO multilabel counter. (Wallac Berthold Japan). The percent inhibition of activity was calculated relative to blank control wells.
The concentration of test compound that inhibits 50% of activity (IC50) was interpolated using nonlinear regression (Levernberg-Marquardt) and the equation, y=Vmax (1−x/(K+x))+Y2, where “K” was equal to the IC50. The IC50 values were converted to pIC50 values, i.e., −log IC50 in Molar concentration.
Test compounds are employed in free or salt form.

Sequence of GSK-3β (P49841 whole entry, species assumed): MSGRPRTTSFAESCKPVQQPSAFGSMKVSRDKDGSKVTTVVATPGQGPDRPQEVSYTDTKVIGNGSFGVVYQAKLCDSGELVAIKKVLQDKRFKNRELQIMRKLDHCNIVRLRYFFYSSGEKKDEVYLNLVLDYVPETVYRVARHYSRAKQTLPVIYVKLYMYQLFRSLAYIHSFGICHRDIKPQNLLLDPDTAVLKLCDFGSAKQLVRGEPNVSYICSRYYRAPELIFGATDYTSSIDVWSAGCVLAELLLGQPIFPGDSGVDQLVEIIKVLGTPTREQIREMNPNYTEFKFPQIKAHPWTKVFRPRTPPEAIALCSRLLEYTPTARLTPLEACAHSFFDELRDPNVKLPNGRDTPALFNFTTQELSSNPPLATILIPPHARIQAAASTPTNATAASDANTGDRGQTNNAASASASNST

| Compound | IC50 (GSK-3β) | IC50 [1] |
| --- | --- | --- |
| NS(=O)(=O)c1ccc(/C=N/Nc2ncnc3c2cnn3-c2ccccc2)cc1 [Example 20, 4-{(E)-[(1-phenyl-1H-pyrazolo[3,4-d]pyrimidin-4-yl)hydrazonol]methyl}benzenesulfonamide] | < 100 nM | 100 to 1000 nM |
| O=C(O)c1ccc(/C=N/Nc2ncnc3c2cnn3-c2ccccc2)cc1 [Example 24, 4-{(E)-[(1-phenyl-1H-pyrazolo[3,4-d]pyrimidin-4-yl)hydrazono]methyl}benzoic Acid] | 100 to 1000 nM | 100 to 1000 nM |
| CN(C)CCNC(=O)c1ccc(/C=N/Nc2ncnc3c2cnn3-c2ccccc2)cc1 [Example 25, N-[2-(dimethylamino)ethyl]-4-{(E)-[(1-phenyl-1H-pyrazolo[3,4-d]pyrimidin-4-yl)hydrazono]methyl}benzamide] | < 100 nM | 100 to 1000 nM |
| O=C(NCCCN1CCCC1)c1ccc(/C=N/Nc2ncnc3c2cnn3-c2ccccc2)cc1 [Example 26, 4-{(E)-[(1-phenyl-1H-pyrazolo[3,4-d]pyrimidin-4-yl)hydrazono]methyl}-N-(3-pyrrolidin-1-ylpropyl)benzamide] | < 100 nM | 100 to 1000 nM |
| O=C(NCCCN1CCOCC1)c1ccc(/C=N/Nc2ncnc3c2cnn3-c2ccccc2)cc1 [Example 27] | < 100 nM | 100 to 1000 nM |
| O=C(NCCc1c[nH]cn1)c1ccc(/C=N/Nc2ncnc3c2cnn3-c2ccccc2)cc1 [Example 29, N[2-(1H-imidazol-4-yl)ethyl]-4-{(E)-[(1-phenyl-1H-pyrazolo[3,4-d]pyrimidin-4-yl)hydrazono]methyl}benzamide] | 100 to 1000 nM | 100 to 1000 nM |
| CN(CCc1ccccn1)C(=O)c1ccc(/C=N/Nc2ncnc3c2cnn3-c2ccccc2)cc1 [Example 30, N-Methyl-4-{(E)-[(1-phenyl-1H-pyrazolo[3,4-d]pyrimidin-4-yl)hydrazono]methyl}-N-(2-pyridin-2-ylethyl)benzamide] | 100 to 1000 nM | 100 to 1000 nM |
| NCCNC(=O)c1ccc(/C=N/Nc2ncnc3c2cnn3-c2ccccc2)cc1 [Example 31, N-(2-Aminoethyl)-4-{(E)-[(1-phenyl-1H-pyrazolo[3,4-d]pyrimidin-4-yl)hydrazono]methyl}benzamide] | 100 to 1000 nM | 1000 to 10000 nM |
| NCCCNC(=O)c1ccc(/C=N/Nc2ncnc3c2cnn3-c2ccccc2)cc1 [Example 32, N-(3-aminopropyl)-4-{(E)-[(1-phenyl-1H-pyrazolo[3,4-d]pyrimidin-4-yl)hydrazono]methyl}benzamide] | 100 to 1000 nM | 100 to 1000 nM |
| O=C(NCCN1CCCCC1)c1ccc(/C=N/Nc2ncnc3c2cnn3-c2ccccc2)cc1 [Example 33, 4-{(E)-[(1-phenyl-1H-pyrazolo[3,4-d]pyrimidin-4-yl)hydrazono]methyl}-N-(2-piperidin-1-ylethyl)benzamide] | < 100 nM | 100 to 1000 nM |
| O=C(NCCN1CCCC1)c1ccc(/C=N/Nc2ncnc3c2cnn3-c2ccccc2)cc1 [Example 34, 4-{(E)-[(1-phenyl-1H-pyrazolo[3,4-d]pyrimidin-4-yl)hydrazono]methyl}-N-(2-pyrrolidin-1-ylethyl)benzamide] | 100 to 1000 nM | 100 to 1000 nM |
| CN(C)CCN1CCN(C(=O)c2ccc(/C=N/Nc3ncnc4c3cnn4-c3ccccc3)cc2)CC1 [Example 35, 4-({4-[2-(Dimethylamino)ethyl]piperazin-1-yl}carbonyl)benzaldehyde (1-phenyl-1H-pyrazolo[3,4-d]pyrimidin-4-yl)hydrazone] | 100 to 1000 nM | 100 to 1000 nM |
| COCCN1CCN(C(=O)c2ccc(/C=N/Nc3ncnc4c3cnn4-c3ccccc3)cc2)CC1 [Example 36, 4-{[4-(2-methoxyethyl)piperazin-1-yl]carbonyl}benzaldehyde (1-phenyl-1H-pyrazolo[3,4-d]pyrimidin-4-yl)hydrazone] | 100 to 1000 nM | 100 to 1000 nM |
| CN1CCN(CCCNC(=O)c2ccc(/C=N/Nc3ncnc4c3cnn4-c3ccccc3)cc2)CC1 [Example 37, N[3-(4-Methylpiperazin-1-yl)propyl]-4-{(E)-[(1-phenyl-1H-pyrazolo[3,4-d]pyrimidin-4-yl)hydrazono]methyl}benzamide] | 100 to 1000 nM | 100 to 1000 nM |
| CS(=O)(=O)CCNC(=O)c1ccc(/C=N/Nc2ncnc3c2cnn3-c2ccccc2)cc1 [Example 38, N-[2-(Methylsulfonyl)ethyl]-4-{(E)-[(1-phenyl-1H-pyrazolo[3,4-d]pyrimidin-4-yl)hydrazono]methyl}benzamide] | < 100 nM | 100 to 1000 nM |
| O=C(O)c1cccc(/C=N/Nc2ncnc3c2cnn3-c2ccccc2)c1 [Example 39, 3-{(E)-[(1-phenyl-1H-pyrazolo[3,4-d]pyrimidin-4-yl)hydrazono]methyl}benzoic Acid] | 1000 to 10000 nM | 1000 to 10000 nM |
| COc1cc(/C=N/Nc2ncnc3c2cnn3-c2ccccc2)ccc1O [Example 43, 4-Hydroxy-3-methoxybenzaldehyde (1-phenyl-1H-pyrazolo[3,4-d]pyrimidin-4-yl)hydrazone] | < 100 nM | 100 to 1000 nM |
| OCc1cc(/C=N/Nc2ncnc3c2cnn3-c2ccccc2)ccc1O [Example 44, 4-Hydroxy-3-hydroxymethylbenzaldehyde (1-phenyl-1H-pyrazolo[3,4-d]pyrimidin-4-yl)hydrazone] | 100 to 1000 nM | 100 to 1000 nM |
| COc1ccc(/C=N/Nc2ncnc3c2cnn3-c2ccccc2)cc1O [Example 45, 3-Hydroxy-4-methoxybenzaldehyde (1-phenyl-1H-pyrazolo[3,4-d]pyrimidin-4-yl)hydrazone] | 100 to 1000 nM | 100 to 1000 nM |
| CCOc1cc(/C=N/Nc2ncnc3c2cnn3-c2ccccc2)cc(Br)c1O [Example 46, 3-Bromo-4-hydroxy-3-ethoxybenzaldehyde (1-phenyl-1H-pyrazolo[3,4-d]pyrimidin-4-yl)hydrazone] | 1000 to 10000 nM | 100 to 1000 nM |
| COc1cc(/C=N/Nc2ncnc3c2cnn3-c2ccccc2)cc(C(=O)O)c1O [Example 47, 3-Carboxy-4-Hydroxy-5-methoxybenzaldehyde (1-phenyl-1H-pyrazolo[3,4-d]pyrimidin-4-yl)hydrazone] | 100 to 1000 nM | 1000 to 10000 nM |
| COc1cc(/C=N/Nc2ncnc3c2cnn3-c2ccccc2)cc(Br)c1O [Example 48, 3-Bromo-4-hydroxy-3-methoxybenzaldehyde (1-phenyl-1H-pyrazolo[3,4-d]pyrimidin-4-yl)hydrazone] | 100 to 1000 nM | 100 to 1000 nM |
| CCOc1cc(/C=N/Nc2ncnc3c2cnn3-c2ccccc2)ccc1O [Example 49, 3-Ethoxy-4-hydroxy-benzaldehyde (1-phenyl-1H-pyrazolo[3,4-d]pyrimidin-4-yl)hydrazone] | 1000 to 10000 nM | 1000 to 10000 nM |
| Fc1ccc(/C=N/Nc2ncnc3c2cnn3-c2ccccc2)cc1 [Example 50, 4-Fluorobenzaldehyde (1-phenyl-1H-pyrazolo[3,4-d]pyrimidin-4-yl)hydrazone] | 100 to 1000 nM | 1000 to 10000 nM |
| OCc1ccc(/C=N/Nc2ncnc3c2cnn3-c2ccccc2)o1 [Example 51, 5-Hydroxymethyl-2-furaldehyde [1-(phenyl)-1H-pyrazolo[3,4-d]pyrimidin-4-yl]hydrazone] | 1000 to 10000 nM | 1000 to 10000 nM |
